# What was measured:
# Format in all cases: in vivo, mouse (C57BL/6J male, 60% HFD DIO)
# [1] = Example 2: body weight and body weight change rate, combined administration of HTD1801 and dapagliflozin or empagliflozin in DIO obesity model; settings: HTD1801 250 mpk, dapagliflozin 10 mpk, empagliflozin 15 mpk p.o. QD, semaglutide 10 nmol/kg s.c. Q3D
# Excerpt: (§1) After 5-6-week-old C57BL/6J male mice were acclimatized for 1 week, the weight of each mouse was weighed, and the mice were randomly divided into a control group and a model group by taking the weight as a main index, where 12 mice in the control group were fed with common feed (CD), and the mice in the remaining model group were fed with 60% high-fat feed (60% HFD) for 10-12 weeks to construct a DIO obesity model, with the average body weight being not less than 40 g. The mice fed with 60% HFD were grabbed and acclimatized with a solvent for 3 days, where the acclimatization with a solvent was performed by oral gavage of 0.5% CMC-Na, once daily.
# (§2) The food intake, the body weight, the body fat ratio, and the insulin level of the mice were respectively measured, followed by fasting blood glucose level, and the mice were randomly grouped according to Table 12 by taking the body weight as an index, and the remaining ungrouped mice were euthanized. After grouping, each group of mice was administered according to Table 12, the day of administration was defined as DO, and the administration volume of each drug was determined based on the results obtained by the calculation of 5 μL/g× mouse body weight (g).
# (§3) For the combined administration group, the administration sequence and the administration time were kept consistent at each administration. The mice were continuously fed with high-fat feed during the administration period until the administration was finished. During administration, 1 food intake was measured per week (difference in feed weights at an interval of 24 h was measured); each group of mice was weighed once daily; blood was collected from the tail tip on day 16 and day 30, respectively, so as to measure fasting blood glucose levels once (blood was collected after fasting from 9:00 am to 3:[…]); on day 24 of administration (D23), the body fat ratio and the lean mass of each group of mice were measured by MRI (the measurement period was kept consistent with that before grouping); after 25 days of administration intervention (day 24), each group of mice was fasted for 6 h and subjected to OGTT (0 min, 15 min, 30 min, 60 min, 90 min, 120 min) to detect their blood glucose levels; after 29 days of administration intervention (day 28), each group of mice was fasted for 6 h and subjected to OGTT (0 min, 15 min, 30 min, 60 min, 90 min, 120 min), and meanwhile subjected to blood sampling via submaxillary vein (0 min, 15 min, 30 min, about 30 μL of blood sampled each time), and then the blood plasma was separated for detecting the insulin level by ELISA, where the separated blood plasma was more than 10 μL; the next day (D30) at the end of administration was set as the test endpoint, and the mice were fasted for 6 h in the morning and subjected to fasting blood glucose level measurement; subsequently, the mice were euthanized with CO2, blood was collected from the heart of each mouse for analysis, and each group of mice was dissected; the liver and subcutaneous, epididymal and mesenteric fat was collected, photographed and weighed, respectively.
# [2] = Example 2: body fat mass by MRI on day 23
# Excerpt: as §1, §2, §3
# The body weight, the body fat mass and the body fat ratio of each animal in groups G1 to G8 were measured on day 23 and averaged for each group, and the results are shown in Table 15 below, and FIGS. 21 and 22.
# [3] = Example 2: lean mass by MRI on day 23
# Excerpt: as §1, §2, §3
# The body weight, the lean mass and the lean ratio of each animal in groups G1 to G8 were measured on day 23 and averaged for each group, and the results are shown in Table 16 below, and FIGS. 23 and 24.
# [4] = mean, day 23, HTD1801 250 mpk, dapagliflozin 10 mpk, empagliflozin 15 mpk p.o. QD
compound,measurement,setting,value
"COc1ccc2cc3[n+](cc2c1OC)CCc1cc2c(cc1-3)OCO2.C[C@H](CCC(=O)[O-])[C@H]1CC[C@H]2[C@@H]3[C@@H](O)C[C@@H]4C[C@H](O)CC[C@]4(C)[C@H]3CC[C@]12C [HTD1801, berberine ursodeoxycholate]",body weight change / weight loss effect (in words),[1],"close to that of the semaglutide group, with a uniform and sustained decrease throughout the administration period"
same,Body weight (mean),[1]; day 0 (baseline),45.3 g
same,Body weight change rate,[1]; day 0 (baseline),0.0%
same,Body weight (mean),[1]; day 1,44.5 g
same,Body weight change rate,[1]; day 1,−1.6%
same,Body weight (mean),[1]; day 2,44.1 g
same,Body weight change rate,[1]; day 2,−2.5%
same,Body weight (mean),[1]; day 3,44.1 g
same,Body weight change rate,[1]; day 3,−2.5%
same,Body weight (mean),[1]; day 4,43.6 g
same,Body weight change rate,[1]; day 4,−3.7%
same,Body weight (mean),[1]; day 5,43.1 g
same,Body weight change rate,[1]; day 5,−4.9%
same,Body weight (mean),[1]; day 6,42.7 g
same,Body weight change rate,[1]; day 6,−5.7%
same,Body weight (mean),[1]; day 7,42.7 g
same,Body weight change rate,[1]; day 7,−5.7%
same,Body weight (mean),[1]; day 8,42.5 g
same,Body weight change rate,[1]; day 8,−6.2%
same,Body weight (mean),[1]; day 9,41.9 g
same,Body weight change rate,[1]; day 9,−7.5%
same,Body weight (mean),[1]; day 10,41.9 g
same,Body weight change rate,[1]; day 10,−7.4%
same,Body weight (mean),[1]; day 11,41.7 g
same,Body weight change rate,[1]; day 11,−7.9%
same,Body weight (mean),[1]; day 12,41.3 g
same,Body weight change rate,[1]; day 12,−8.7%
same,Body weight (mean),[1]; day 13,40.3 g
same,Body weight change rate,[1]; day 13,−10.9%
same,Body weight (mean),[1]; day 14,40.5 g
same,Body weight change rate,[1]; day 14,−10.7%
same,Body weight (mean),[1]; day 15,40.3 g
same,Body weight change rate,[1]; day 15,−11.1%
same,Body weight (mean),[1]; day 16,40.2 g
same,Body weight change rate,[1]; day 16,−11.2%
same,Body weight (mean),[1]; day 17,39.9 g
same,Body weight change rate,[1]; day 17,−11.8%
same,Body weight (mean),[1]; day 18,39.7 g
same,Body weight change rate,[1]; day 18,−12.3%
same,Body weight (mean),[1]; day 19,39.4 g
same,Body weight change rate,[1]; day 19,−12.8%
same,Body weight (mean),[1]; day 20,39.3 g
same,Body weight change rate,[1]; day 20,−13.2%
same,Body weight (mean),[1]; day 21,39.1 g
same,Body weight change rate,[1]; day 21,−13.5%
same,Body weight (mean),[1]; day 22,39.2 g
same,Body weight change rate,[1]; day 22,−13.4%
same,Body weight (mean),[1]; day 23,38.9 g
same,Body weight change rate,[1]; day 23,−14.0%
same,Body weight (mean),[1]; day 24,38.2 g
same,Body weight change rate,[1]; day 24,−15.6%
same,Body weight (mean),[1]; day 25,38.4 g
same,Body weight change rate,[1]; day 25,−15.1%
same,Body weight (mean),[1]; day 26,38.6 g
same,Body weight change rate,[1]; day 26,−14.6%
same,Body weight (mean),[1]; day 27,38.7 g
same,Body weight change rate,[1]; day 27,−14.5%
same,Body weight (mean),[1]; day 28,38.4 g
same,Body weight change rate,[1]; day 28,−15.1%
same,Body weight (mean),[1]; day 29,37.4 g
same,Body weight change rate,[1]; day 29,−17.4%
same,body fat mass and body fat ratio (in words),"[2]; day 23, relative to control group G2",significantly decreased
same,Body weight,"[2]; mean, day 23 (Table 15), HTD1801 250 mpk, dapagliflozin 10 mpk, empagliflozin 15 mpk p.o. QD",38.9 g
same,Body fat ratio,[2]; [4],44.8%
same,Fat (body fat mass),[2]; [4],17.5 g
same,lean ratio (in words),"[3]; day 23, relative to model control group G2",slightly increased
same,Body weight,"[3]; mean, day 23 (Table 16), HTD1801 250 mpk, dapagliflozin 10 mpk, empagliflozin 15 mpk p.o. QD",38.9 g
same,Lean (lean mass),[3]; [4],5.1 g
same,Lean ratio,[3]; [4],13.0%

# Source: US20260373165A1, “PHARMACEUTICAL COMBINATIONS AND COMPOSITIONS, AND METHODS OF USE THEREOF” (SHENZHEN HIGHTIDE BIOPHARMACEUTICAL LTD., priority 2022, published 2026)
